Assay results published in the NIST ThermoML archive (doi:10.1021/je060271a).
Where “and” joins values, the source holds several entries; their conditions need not be identical. Equal values may be shown once.

Conditions: 343.15 K, Liquid, Vibrating tube method

CCCCCC(=O)OCC(COC(=O)CCCCC)(COC(=O)CCCCC)COC(=O)CCCCC [pentaerythritol tetrahexanoate]
Conditions | mass density
242.7 kPa | 957.2 kg/m3
242.9 kPa | 957.3 kg/m3
243.1 kPa | 957.3 kg/m3
243.2 kPa | 957.3 kg/m3 and 957.2 kg/m3
243.6 kPa | 957.2 kg/m3
243.9 kPa | 957.3 kg/m3 and 957.1 kg/m3
244.3 kPa | 957.3 kg/m3
244.5 kPa | 957.2 kg/m3 and 957.3 kg/m3
244.8 kPa | 957.3 kg/m3
245 kPa | 957.2 kg/m3 and 957.4 kg/m3
245.3 kPa | 957.3 kg/m3 and 957.2 kg/m3
245.5 kPa | 957.2 kg/m3
245.7 kPa | 957.2 kg/m3
245.9 kPa | 957.3 kg/m3
246.2 kPa | 957.4 kg/m3
246.4 kPa | 957.3 kg/m3
246.6 kPa | 957.3 kg/m3
249 kPa | 957.2 kg/m3
249.5 kPa | 957.2 kg/m3
249.9 kPa | 957.4 kg/m3
250 kPa | 957.2 kg/m3
250.2 kPa | 957.1 kg/m3
251.6 kPa | 957.3 kg/m3
251.8 kPa | 957.3 kg/m3 and 957.2 kg/m3
251.9 kPa | 957.3 kg/m3
252.3 kPa | 957.3 kg/m3 and 957.2 kg/m3
252.6 kPa | 957.1 kg/m3
252.8 kPa | 957.2 kg/m3
253.2 kPa | 957.2 kg/m3
253.3 kPa | 957.3 kg/m3 and 957.2 kg/m3 and 957.4 kg/m3
253.7 kPa | 957.2 kg/m3
254 kPa | 957.2 kg/m3
254.4 kPa | 957.2 kg/m3
254.9 kPa | 957.3 kg/m3
255.1 kPa | 957.2 kg/m3 and 957.3 kg/m3
255.4 kPa | 957.3 kg/m3
255.6 kPa | 957.4 kg/m3
256.3 kPa | 957.3 kg/m3
256.5 kPa | 957.1 kg/m3
256.6 kPa | 957.2 kg/m3
256.8 kPa | 957.2 kg/m3
257 kPa | 957.2 kg/m3
257.3 kPa | 957.3 kg/m3
257.5 kPa | 957.2 kg/m3
257.7 kPa | 957.3 kg/m3
257.9 kPa | 957.3 kg/m3
258.2 kPa | 957.2 kg/m3
259.2 kPa | 957.2 kg/m3
259.6 kPa | 957.4 kg/m3
259.9 kPa | 957.3 kg/m3
260.1 kPa | 957.3 kg/m3
260.4 kPa | 957.3 kg/m3
260.6 kPa | 957.3 kg/m3
261 kPa | 957.3 kg/m3 and 957.2 kg/m3
261.3 kPa | 957.2 kg/m3
261.5 kPa | 957.2 kg/m3
261.7 kPa | 957.2 kg/m3
261.8 kPa | 957.3 kg/m3
262.2 kPa | 957.3 kg/m3
262.5 kPa | 957.4 kg/m3
262.9 kPa | 957.4 kg/m3 and 957.2 kg/m3
263 kPa | 957.2 kg/m3
263.4 kPa | 957.1 kg/m3 and 957.4 kg/m3 and 957.3 kg/m3
263.7 kPa | 957.4 kg/m3 and 957.3 kg/m3
266.9 kPa | 957.4 kg/m3
270.7 kPa | 957.2 kg/m3
271.2 kPa | 957.3 kg/m3
273.5 kPa | 957.3 kg/m3
273.6 kPa | 957.4 kg/m3
274 kPa | 957.3 kg/m3
274.3 kPa | 957.3 kg/m3
275.2 kPa | 957.3 kg/m3
275.6 kPa | 957.4 kg/m3
275.7 kPa | 957.4 kg/m3
275.9 kPa | 957.2 kg/m3
276.1 kPa | 957.4 kg/m3
276.4 kPa | 957.2 kg/m3
276.6 kPa | 957.4 kg/m3
276.9 kPa | 957.3 kg/m3
277.3 kPa | 957.3 kg/m3
277.6 kPa | 957.3 kg/m3
278 kPa | 957.3 kg/m3
278.2 kPa | 957.2 kg/m3
278.3 kPa | 957.2 kg/m3
278.7 kPa | 957.3 kg/m3
279 kPa | 957.3 kg/m3
279.2 kPa | 957.3 kg/m3
279.4 kPa | 957.2 kg/m3
279.6 kPa | 957.2 kg/m3
285.3 kPa | 957.4 kg/m3
285.6 kPa | 957.4 kg/m3 and 957.2 kg/m3
286.1 kPa | 957.3 kg/m3
286.3 kPa | 957.3 kg/m3
286.5 kPa | 957.3 kg/m3
286.7 kPa | 957.3 kg/m3
287 kPa | 957.4 kg/m3
287.2 kPa | 957.1 kg/m3
287.4 kPa | 957.3 kg/m3
287.5 kPa | 957.2 kg/m3
287.9 kPa | 957.3 kg/m3
288.2 kPa | 957.2 kg/m3
288.6 kPa | 957.3 kg/m3
288.7 kPa | 957.2 kg/m3
288.9 kPa | 957.3 kg/m3
289.1 kPa | 957.3 kg/m3
289.4 kPa | 957.2 kg/m3
289.8 kPa | 957.2 kg/m3 and 957.3 kg/m3
291.2 kPa | 957.3 kg/m3
291.4 kPa | 957.3 kg/m3
291.5 kPa | 957.4 kg/m3 and 957.2 kg/m3
291.9 kPa | 957.4 kg/m3
292.2 kPa | 957.3 kg/m3
292.4 kPa | 957.3 kg/m3 and 957.4 kg/m3
292.7 kPa | 957.4 kg/m3
293.1 kPa | 957.3 kg/m3
293.4 kPa | 957.3 kg/m3
293.6 kPa | 957.3 kg/m3
294.6 kPa | 957.3 kg/m3
294.7 kPa | 957.3 kg/m3
296.4 kPa | 957.4 kg/m3 and 957.3 kg/m3
296.6 kPa | 957.3 kg/m3
297.1 kPa | 957.3 kg/m3
297.3 kPa | 957.3 kg/m3
297.6 kPa | 957.4 kg/m3
298 kPa | 957.4 kg/m3 and 957.3 kg/m3 and 957.2 kg/m3
298.5 kPa | 957.3 kg/m3
298.8 kPa | 957.4 kg/m3
299 kPa | 957.2 kg/m3
299.9 kPa | 957.3 kg/m3
305.4 kPa | 957.4 kg/m3
305.8 kPa | 957.2 kg/m3
306 kPa | 957.3 kg/m3
306.3 kPa | 957.4 kg/m3
306.8 kPa | 957.4 kg/m3 and 957.3 kg/m3
307.5 kPa | 957.3 kg/m3
307.9 kPa | 957.3 kg/m3
308.2 kPa | 957.3 kg/m3
308.4 kPa | 957.2 kg/m3
308.7 kPa | 957.5 kg/m3 and 957.3 kg/m3
309.1 kPa | 957.3 kg/m3
309.3 kPa | 957.3 kg/m3
309.4 kPa | 957.4 kg/m3
309.8 kPa | 957.1 kg/m3
310.6 kPa | 957.3 kg/m3
311.2 kPa | 957.3 kg/m3
